Assay results from ChEMBL document CHEMBL1143604, “Structure-activity relationship studies optimizing the antiproliferative activity of novel cyclic somatostatin analogues containing a restrained cyclic beta-amino acid” (J Med Chem, 2005).
Values belong to the molecule of their own block, whether it stands above or below them.

Test system: A-431
Experiment: Antiproliferative activity against human epidermiod carcinoma A431 cells
Type: functional, cell-based

SMILES: CCCC[C@@H]1NC(=O)[C@@H](Cc2c[nH]c3ccccc23)NC(=O)[C@H](Cc2ccc(O)cc2)NC(=O)[C@@H]2CCCN2C(=O)[C@H](Cc2ccccc2)NC(=O)[C@H]([C@@H](C)O)NC1=O
IC50: 32 µM

SMILES: CCCC[C@@H]1NC(=O)[C@@H](Cc2c[nH]c3ccccc23)NC(=O)[C@H](Cc2ccc(O)cc2)NC(=O)[C@H]2C[C@@H](C)C=C(C)[C@H]2NC(=O)[C@H]([C@@H](C)O)NC1=O
IC50: > 100 µM

SMILES: C[C@@H](O)[C@@H]1NC(=O)C(CCCCN)NC(=O)[C@@H](Cc2c[nH]c3ccccc23)NC(=O)C(Cc2ccccc2)NC(=O)[C@@H]2CCCN2C(=O)C(Cc2ccccc2)NC1=O (single isomer, unassigned)
IC50: > 50 µM

Next, values leading:

IC50: 26 µM
SMILES: CCCC[C@@H]1NC(=O)[C@H](Cc2c[nH]c3ccccc23)NC(=O)[C@@H](Cc2ccc(O)cc2)NC(=O)[C@@H]2CCCN2C(=O)[C@H](Cc2ccccc2)NC(=O)[C@@H]([C@@H](C)OC(c2ccccc2)(c2ccccc2)c2ccccc2)NC1=O

IC50: 5 µM
SMILES: CCCC[C@@H]1NC(=O)[C@@H](Cc2c[nH]c3ccccc23)NC(=O)[C@H](Cc2ccc(O)cc2)NC(=O)[C@H]2C[C@@H](C)C=C(C)[C@H]2NC(=O)[C@H]([C@@H](C)OC(c2ccccc2)(c2ccccc2)c2ccccc2)NC1=O

IC50: 6 µM
SMILES: CCCC[C@@H]1NC(=O)[C@@H](Cc2c[nH]c3ccccc23)NC(=O)[C@@H](Cc2ccc(O)cc2)NC(=O)[C@H]2C[C@@H](C)C=C(C)[C@H]2NC(=O)[C@H]([C@@H](C)OC(c2ccccc2)(c2ccccc2)c2ccccc2)NC1=O
